IC50 data for 56 compounds are collected here from US20250195483A1, “SPIRO PIPERIDINE DERIVATIVES AS INHIBITORS OF APOL1 AND METHODS OF USING SAME” (Vertex Pharmaceuticals Incorporated, priority 2022, published 2025).

The assay addresses T1, APOL1 (Homo sapiens, UniProt O14791).
T1 sequence (O14791 1-398): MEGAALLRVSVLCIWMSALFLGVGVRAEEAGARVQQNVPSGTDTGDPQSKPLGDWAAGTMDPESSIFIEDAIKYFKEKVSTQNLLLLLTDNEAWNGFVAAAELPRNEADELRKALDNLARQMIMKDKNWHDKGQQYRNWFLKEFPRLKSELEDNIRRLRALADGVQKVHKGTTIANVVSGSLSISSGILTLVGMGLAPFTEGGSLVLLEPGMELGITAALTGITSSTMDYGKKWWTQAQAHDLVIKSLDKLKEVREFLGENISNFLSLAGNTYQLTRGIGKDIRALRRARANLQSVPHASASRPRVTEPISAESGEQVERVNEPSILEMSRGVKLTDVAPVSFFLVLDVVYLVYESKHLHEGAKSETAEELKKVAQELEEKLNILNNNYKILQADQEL
Description: MultiTox-Fluor Multiplex Cytotoxicity Assay, tet-inducible APOL1 T-REx-HEK293 cells (G0, G1 or G2 clone not specified for Table 20). It counts as cell-based. Conditions: tet-induced, 24 hours with compound, ratio of dead to live cells, read-out: IP50 (i.e., IC50 for cell proliferation). The procedure, abridged: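 HEK293 T-REx cells with tet-inducible APOL1 G0, G1 or G2 clone, 23,400/well, treated with tetracycline plus compound (top 10 μM, 10-point 3-fold, duplicate) for 24 h at 37° C. MultiTox-Fluor dead/live fluorescence ratio, normalized to no-tet (100% viability) and 50 ng/mL tet (0% viability) controls, then curve-fitted.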

Each structure is given as a SMILES string.

As for `Cc1ccc2c(c1)[C@]1(CCN(Cc3cn[nH]c3)[C@@H](C)C1)OCC2` [Compound 96], the IC50 was at most 50 nM.
Next, `Cc1ccc2c(c1)C1(CCN(Cc3cnn(CCO)c3)[C@@H](C)C1)OCC2` (some centres unmarked) [Compound 98]: at most 50 nM; `COc1cncc(CN2CCC3(CC2)C(=O)Nc2ccc(Cl)cc23)c1` [Compound 5]: at least 500 nM.
Next, `CCc1nnc(Cn2cc(CN3CC[C@]4(C[C@@H]3C)OCCc3ccc(Cl)cc34)nn2)o1` [Compound 161]: at most 50 nM.
For `CCn1cc(CN2CC[C@]3(C[C@@H]2C)OCCc2ccc(Cl)cc23)cn1` [Compound 121], the IC50 was at most 50 nM.
For `NC(=O)C1OC2(CCN(Cc3cnccn3)CC2)c2cc(Cl)ccc21` (centres unmarked) [Compound 272] the value was at least 500 nM; for `C[C@H]1C[C@@]2(CCN1Cc1cn(Cc3cn(C4CC4)c(=O)[nH]c3=O)nn1)OCCc1ccc(Cl)cc12` [Compound 189], at most 50 nM; for `N#Cc1ccc(CN2CCC3(CC2)OC(C(N)=O)c2ccc(Cl)cc23)cc1` (centres unmarked) [Compound 217], 50 to 500 nM.
Next, `NC(=O)c1cnc(CN2CCC3(CC2)OC(C(N)=O)c2ccc(Cl)cc23)cn1` (centres unmarked) [Compound 245]: 50 to 500 nM; `C[C@H]1CC2(CCN1Cc1cnn(-c3ccccc3)c1)OC(C(N)=O)c1ccc(Cl)cc12` (stereo partly drawn) [Compound 292, (2′S)-5-chloro-2′-methyl-1′-[(1-phenylpyrazol-4-yl)methyl]spiro[1H-isobenzofuran-3,4′-piperidine]-1-carboxamide]: at most 50 nM; `C[C@H]1C[C@@]2(CCN1Cc1ccccn1)OCCc1ccc(Cl)cc12` [Compound 138]: at least 500 nM.
With `CS(=O)(=O)CCn1cc(CN2CCC3(CC2)C(=O)Nc2ccc(CC(F)F)cc23)cn1` [Compound 31], the IC50 was at least 500 nM.
Next, `C[C@H]1C[C@@]2(CCN1Cc1ncc[nH]1)OCCc1ccc(Cl)cc12` [Compound 110]: 50 to 500 nM; `CS(=O)(=O)CCn1cc(CN2CCC3(CC2)OC(C(N)=O)c2ccc(Cl)cc23)nn1` (centres unmarked) [Compound 208, 5-chloro-1′-[[1-(2-methylsulfonylethyl)triazol-4-yl]methyl]spiro[1H-isobenzofuran-3,4′-piperidine]-1-carboxamide]: at least 500 nM.
For `C[C@H]1C[C@@]2(CCN1Cc1cn(CCCc3nc(=O)[nH][nH]3)nn1)OCCc1ccc(Cl)cc12` [Compound 160] the value was 50 to 500 nM.
For `CN1C(=O)C2(CCN(Cc3cn(CCO)nn3)CC2)c2cc(Cl)ccc21` [Compound 43] the value was at least 500 nM; for `CC(=O)N1CC2(CCN(Cc3cnn(C)c3)CC2)c2cc(Cl)ccc21` [Compound 314, 1-[5-chloro-1′-[(1-methylpyrazol-4-yl)methyl]spiro[indoline-3,4′-piperidine]-1-yl]ethenone], at least 500 nM.
On to `CN(C)C(=O)Cn1cc(CN2CCC3(CC2)OC(C(N)=O)c2ccc(Cl)cc23)cn1` (centres unmarked) [Compound 284], for which the IC50 fell in the range of 50 to 500 nM.
For `Cc1nc(C)c(CN2CCC3(CC2)OC(C(N)=O)c2ccc(Cl)cc23)o1` (centres unmarked) [Compound 276] the value was at least 500 nM; for `CNS(=O)(=O)CCn1cc(CN2CC[C@]3(C[C@@H]2C)OCCc2ccc(Cl)cc23)cn1` [Compound 126], at most 50 nM; for `C[C@H]1C[C@@]2(CCN1Cc1cn(CC3CC(=O)N(C)C3)nn1)OCCc1ccc(Cl)cc12` (some centres unmarked) [Compound 145], 50 to 500 nM.
Turning to `NC(=O)C1OC2(CCN(Cc3cnn(-c4ccccn4)c3)CC2)c2cc(Cl)ccc21` (centres unmarked) [Compound 201], the IC50 was at most 50 nM.
Next, `NC(=O)C1OC2(CCN(Cc3cnn(CC4(O)CCS(=O)(=O)CC4)c3)CC2)c2cc(Cl)ccc21` (centres unmarked) [Compound 282]: at most 50 nM.
For `Cc1ccc2c(c1)C1(CCN(Cc3cnn(CCS(C)(=O)=O)c3)CC1)OC2(C)C` [Compound 289, 1,1,5-trimethyl-1′-[[1-(2-methylsulfonylethyl)pyrazol-4-yl]methyl]spiro[isobenzofuran-3,4′-piperidine]] the value was at least 500 nM; for `C[C@H]1C[C@@]2(CCN1Cc1cnn(CCS(C)(=O)=O)c1)OC[C@@H](O)c1ccc(Cl)cc12` [Compound 133], at most 50 nM; for `CS(=O)(=O)CCn1cc(CN2CCC3(CC2)C(=O)Nc2c(CO)cc(Cl)cc23)cn1` [Compound 29], at most 50 nM.
Next, `CC1(n2cc(CN3CCC4(CC3)OC(C(N)=O)c3ccc(Cl)cc34)cn2)CCS(=O)(=O)C1` (centres unmarked) [Compound 241]: at least 500 nM; `CS(=O)(=O)CCn1cc(CN2CCC3(CC2)C(=O)Nc2c(Cl)cc(Cl)cc23)cn1` [Compound 36]: 50 to 500 nM; `NC(=O)c1cccc(CN2CCC3(CC2)OC(C(N)=O)c2ccc(Cl)cc23)c1` (centres unmarked) [Compound 266]: at least 500 nM.
As to `NC(=O)C1OC2(CCN(Cc3cnn(-c4cccnc4)c3)CC2)c2cc(Cl)ccc21` (centres unmarked) [Compound 239], the IC50 was at most 50 nM.
Turning to `Cn1cc(CN2CCC3(CC2)OC(C(N)=O)c2ccc(Cl)cc23)c(=O)n(C)c1=O` (centres unmarked) [Compound 271], the IC50 is at least 500 nM.
Next, `NC(=O)C1OC2(CCN(Cc3c[nH]c4ccncc34)CC2)c2cc(Cl)ccc21` (centres unmarked) [Compound 264]: at least 500 nM; `NC(=O)C1OC2(CCN(Cc3cocn3)CC2)c2cc(Cl)ccc21` (centres unmarked) [Compound 255]: at least 500 nM; `NC(=O)C1OC2(CCN(Cc3ccno3)CC2)c2cc(Cl)ccc21` (centres unmarked) [Compound 259]: at least 500 nM.
Next, `C[C@H]1C[C@@]2(CCN1Cc1cccnc1)OCCc1ccc(Cl)cc12` [Compound 114]: at most 50 nM.
Consider `Cn1cc(CN2CCC3(CC2)OCCc2ccccc23)cn1` [Compound 127], for which the IC50 is at least 500 nM.
Next, `Cc1ncc(-n2cc(CN3CCC4(CC3)OC(C(N)=O)c3ccc(Cl)cc34)cn2)cn1` (centres unmarked) [Compound 209, 5-chloro-1′-[[1-(2-methylpyrimidin-5-yl)pyrazol-4-yl]methyl]spiro[1H-isobenzofuran-3,4′-piperidine]-1-carboxamide]: at most 50 nM.
For `NC(=O)Cn1cc(CN2CCC3(CC2)OC(C(N)=O)c2ccc(Cl)cc23)cn1` (centres unmarked) [Compound 285] the value was 50 to 500 nM; for `CNC(=O)C1OC2(CCN(Cc3cnn(-c4cccc(C(F)(F)F)c4)c3)CC2)c2cc(Cl)ccc21` (centres unmarked) [Compound 295, 5-chloro-N-methyl-1′-[[1-[3-(trifluoromethyl)phenyl]pyrazol-4-yl]methyl]spiro[1H-isobenzofuran-3,4′-piperidine]-1-carboxamide], at most 50 nM; for `Cc1ccc2c(c1)C1(CCN(Cc3cn[nH]c3)[C@@H](C)C1)OCC2` (some centres unmarked) [Compound 97], at least 500 nM.
For the compound `NC(=O)C1OC2(CCN(Cc3cnc(N)nc3)CC2)c2cc(Cl)ccc21` (centres unmarked) [Compound 256], the IC50 is 50 to 500 nM.
For `C[C@H]1C[C@@]2(CCN1Cc1cn(CC3(C(N)=O)CCOCC3)nn1)OCCc1ccc(Cl)cc12` [Compound 184] the value was at most 50 nM; for `CS(=O)(=O)CCn1cc(CN2CCC3(CC2)C(=O)N(C2COC2)c2ccc(Cl)cc23)cn1` [Compound 49], 50 to 500 nM.
`Cc1ccc(NCCn2cc(CN3CC[C@]4(C[C@@H]3C)OCCc3ccc(Cl)cc34)nn2)nn1` [Compound 159]: the IC50 lay in the range of 50 to 500 nM.
For `CS(=O)(=O)CCn1cc(CN2CCC3(CC2)C(=O)Nc2ccc(F)cc23)cn1` [Compound 21] the value was at least 500 nM; for `C[C@H]1C[C@@]2(CCN1Cc1cnn(C)c1)OCCc1ccc(Cl)cc12` [Compound 111], at most 50 nM; for `COc1ccc(CN2CCC3(CC2)C(=O)Nc2ccc(Cl)cc23)cc1F` [Compound 8], 50 to 500 nM.
Next, `O=C1Nc2ccc(Cl)cc2C12CCN(Cc1ccc(OC(F)F)cc1)CC2` [Compound 19]: at least 500 nM; `CNC(=O)C1OC2(CCN(Cc3cnn(CCS(C)(=O)=O)c3)CC2)c2cc(Cl)ccc21` (centres unmarked) [Compound 210, 5-chloro-N-methyl-1′-[[1-(2-methylsulfonylethyl)pyrazol-4-yl]methyl]spiro[1H-isobenzofuran-3,4′-piperidine]-1-carboxamide]: 50 to 500 nM; `CS(=O)(=O)CCn1cc(CN2CCC3(CC2)CC(O)c2ccc(Cl)cc23)cn1` (centres unmarked) [Compound 302, 5-chloro-1′-[[1-(2-methylsulfonylethyl)pyrazol-4-yl]methyl]spiro[indane-3,4′-piperidine]-1-ol]: 50 to 500 nM.
Take `Cc1c(CN2CCC3(CC2)OC(C(N)=O)c2ccc(Cl)cc23)cnn1-c1ccccc1` (centres unmarked) [Compound 213]: the IC50 was in the range of 50 to 500 nM.
For `CN1C(=O)C2(CCN(Cc3cn(CC(C)(CO)CO)nn3)CC2)c2cc(Cl)ccc21` [Compound 44] the value was at least 500 nM.
For `CN1C(=O)C2(CCN(Cc3cnn(C)c3)CC2)c2cc(Cl)ccc21` [Compound 39] the value was 50 to 500 nM; for `O=C1Nc2ccc(Cl)cc2C12CCN(Cc1cccc(OC(F)F)c1)CC2` [Compound 14], at least 500 nM; for `CS(=O)(=O)CCn1cc(CN2CCC3(CC2)C(=O)N(Cc2ccccc2)c2ccc(OC(F)F)cc23)cn1` [Compound 86], at least 500 nM.
Next, `C[C@H]1C[C@@]2(CCN1Cc1cn(CC(O)C(C)(C)O)nn1)OCCc1ccc(Cl)cc12` (some centres unmarked) [Compound 143]: at most 50 nM.
